PubChem BioAssay AID330 (DTP/NCI, 2004)
Values joined by “and” are separate entries in the source; they are usually repeats but may differ in a detail not shown here. Equal entries are not always repeated. Inconclusive results and toxic doses are left out. How the source made its calls: active means survival T/C of 150% or more; inactive means T/C below 125% in these data.

Test system: P388 leukemia ip, CD2F1 mice, survival T/C
Assay: NCI In Vivo Anticancer Drug Screen. Data for tumor model P388 Leukemia (intraperitoneal) in CD2F1 (CDF1) mice
Conditions: endpoint: median survival time, higher = longer survival
Method in brief: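 Mice carrying the transplanted tumor received test compound or vehicle. Survival was recorded in each group, and the value is the treated-group measurement divided by that of the vehicle-treated control group.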

[1] = dose: 50.0 mg/kg/injection, schedule: Q01DX009 (ip), vehicle: saline with Tween-80
[2] = dose: 100.0 mg/kg/injection, schedule: Q01DX009 (ip), vehicle: saline with Tween-80
[3] = dose: 200.0 mg/kg/injection, schedule: Q01DX009 (ip), vehicle: saline with Tween-80
[4] = dose: 50.0 mg/kg/injection, schedule: Q01DX005 (ip), vehicle: Klucel (hydroxypropylcellulose) (HPC)
[5] = dose: 100.0 mg/kg/injection, schedule: Q01DX005 (ip), vehicle: Klucel (hydroxypropylcellulose) (HPC)
[6] = dose: 200.0 mg/kg/injection, schedule: Q01DX005 (ip), vehicle: Klucel (hydroxypropylcellulose) (HPC)
[7] = dose: 50.0 mg/kg/injection, schedule: Q01DX005 (ip), vehicle: saline
[8] = dose: 100.0 mg/kg/injection, schedule: Q01DX005 (ip), vehicle: saline
[9] = dose: 200.0 mg/kg/injection, schedule: Q01DX005 (ip), vehicle: saline
[10] = dose: 60.0 mg/kg/injection, schedule: Q01DX005 (ip), vehicle: saline
[11] = dose: 120.0 mg/kg/injection, schedule: Q01DX005 (ip), vehicle: saline
[12] = dose: 240.0 mg/kg/injection, schedule: Q01DX005 (ip), vehicle: saline
[13] = dose: 50.0 mg/kg/injection, schedule: Q01DX009 (ip), vehicle: Klucel (hydroxypropylcellulose) (HPC)
[14] = dose: 100.0 mg/kg/injection, schedule: Q01DX009 (ip), vehicle: Klucel (hydroxypropylcellulose) (HPC)

Measured: T/C

Cc1nc(Cl)c(C#N)nc1C
inactive: [1] 100 % of control | dose: 50.0 mg/kg/injection, schedule: Q04DX003 (ip), vehicle: saline with Tween-80 110 % of control | [2] 100 % of control | dose: 100.0 mg/kg/injection, schedule: Q04DX003 (ip), vehicle: saline with Tween-80 100 % of control | [3] 100 % of control | dose: 200.0 mg/kg/injection, schedule: Q04DX003 (ip), vehicle: saline with Tween-80 100 % of control

C[C@H]1CC[C@@H]2O[C@@]23C(=O)OC2OC(C)(C)[C@@H]([C@H]2O)[C@]13C
inactive: [4] 102 % of control | [5] 96 % of control | [6] 107 % of control

N#Cc1ccc(N2CCCC2)c(C#N)c1Cl
inactive: [4] 100 % of control | [5] 96 % of control | [6] 99 % of control

COc1cc(NCC(O)CN2C(C)CCCC2C)c2ncccc2c1 (centres undefined)
inactive: dose: 6.0 mg/kg/injection, schedule: Q01DX005 (ip), vehicle: saline 98 % of control | dose: 12.5 mg/kg/injection, schedule: Q01DX005 (ip), vehicle: saline 100 % of control

CC(=O)N/N=C(/C(=O)O)c1ccccc1
inactive: dose: 100.0 mg/kg/injection, schedule: Q04DX002 (ip), vehicle: Klucel (hydroxypropylcellulose) (HPC) 98 % of control | dose: 200.0 mg/kg/injection, schedule: Q04DX002 (ip), vehicle: Klucel (hydroxypropylcellulose) (HPC) 99 % of control | dose: 400.0 mg/kg/injection, schedule: Q04DX002 (ip), vehicle: Klucel (hydroxypropylcellulose) (HPC) 95 % of control

CCN(CC)C(C)CN1c2ccccc2Sc2ccccc21 (centres undefined)
inactive: [7] 100 % of control | [8] 99 % of control | [9] 100 % of control

Cc1cc(NC(=O)c2ccc(NC(=O)c3ccc(N)cc3)cc2)ccc1N=Nc1ccc2c(O)c(N=Nc3ccc(S(=O)(=O)O)cc3C)c(S(=O)(=O)O)cc2c1
inactive: dose: 50.0 mg/kg/injection, schedule: Q01DX005 (ip), vehicle: saline with Tween-80 104 % of control and 107 % of control and 108 % of control | dose: 100.0 mg/kg/injection, schedule: Q01DX005 (ip), vehicle: saline with Tween-80 105 % of control and 112 % of control and 117 % of control | dose: 200.0 mg/kg/injection, schedule: Q01DX005 (ip), vehicle: saline with Tween-80 107 % of control and 114 % of control | dose: 400.0 mg/kg/injection, schedule: Q01DX005 (ip), vehicle: saline with Tween-80 113 % of control and 119 % of control

CCOc1ccccc1C(=O)Nc1cc(C)nn1-c1ccccc1
inactive: dose: 100.0 mg/kg/injection, schedule: Q01DX001 (ip), vehicle: saline with Tween-80 102 % of control | dose: 200.0 mg/kg/injection, schedule: Q01DX001 (ip), vehicle: saline with Tween-80 100 % of control | dose: 400.0 mg/kg/injection, schedule: Q01DX001 (ip), vehicle: saline with Tween-80 106 % of control

O=[n+]1c2c(n([O-])c3cc(Cl)c(Cl)cc31)CCCCC2
inactive: [1] 91 % of control | [2] 99 % of control | [3] 99 % of control

OCC(O)C(O)C(O)/C=N\Nc1ccccc1 (centres undefined)
inactive: dose: 50.0 mg/kg/injection, schedule: Q01DX009 (ip), vehicle: saline 100 % of control | dose: 100.0 mg/kg/injection, schedule: Q01DX009 (ip), vehicle: saline 114 % of control

COC(=O)C1(C(=O)OC)ON1C(C)C (centres undefined)
inactive: [10] 98 % of control | [11] 94 % of control | [12] 116 % of control

NC1=N[C@H]2CS[C@@H](CCCCC(=O)ON3C(=O)CCC3=O)[C@H]2N1
inactive: [10] 98 % of control | [11] 100 % of control | [12] 98 % of control

CCC(C)(CC(=O)O)c1ccccc1 (centres undefined)
inactive: dose: 25.0 mg/kg/injection, schedule: Q04DX003 (ip), vehicle: Klucel (hydroxypropylcellulose) (HPC) 108 % of control | dose: 50.0 mg/kg/injection, schedule: Q04DX003 (ip), vehicle: Klucel (hydroxypropylcellulose) (HPC) 111 % of control | dose: 100.0 mg/kg/injection, schedule: Q04DX003 (ip), vehicle: Klucel (hydroxypropylcellulose) (HPC) 112 % of control | dose: 200.0 mg/kg/injection, schedule: Q04DX003 (ip), vehicle: Klucel (hydroxypropylcellulose) (HPC) 115 % of control

Cc1cc(N=Cc2ccc(C=Nc3ccc(Br)c(C)c3)cc2)ccc1Br
inactive: [13] 101 % of control | [14] 93 % of control | dose: 200.0 mg/kg/injection, schedule: Q01DX009 (ip), vehicle: Klucel (hydroxypropylcellulose) (HPC) 92 % of control

CCCc1c(C)nc2scc(-c3ccccc3)n2c1=O
inactive: [1] 105 % of control | [2] 99 % of control | [3] 99 % of control

C=Cn1c([N+](=O)[O-])cnc1/C=C\c1ccc(C(=O)NC(C)C)cc1
inactive: dose: 100.0 mg/kg/injection, schedule: Q04DX002 (ip), vehicle: gum acacia 92 % of control | dose: 200.0 mg/kg/injection, schedule: Q04DX002 (ip), vehicle: gum acacia 96 % of control | dose: 400.0 mg/kg/injection, schedule: Q04DX002 (ip), vehicle: gum acacia 92 % of control

COC(=O)Nc1ccc(NC(=O)OC)c2c1C(=O)c1ccccc1C2=O
inactive: [7] 95 % of control | [8] 95 % of control | [9] 88 % of control

Cc1sc2ccc3ccccc3c2[n+]1C
inactive: dose: 15.0 mg/kg/injection, schedule: Q01DX005 (ip), vehicle: saline 100 % of control and 106 % of control and 95 % of control | dose: 30.0 mg/kg/injection, schedule: Q01DX005 (ip), vehicle: saline 104 % of control and 108 % of control and 118 % of control | [10] 116 % of control | [11] 91 % of control and 114 % of control

CSCC[C@H](NC(C)=O)B1OCCO1
inactive: [10] 100 % of control | [11] 104 % of control | [12] 109 % of control

CC1CCN(C(=O)c2nc3ccccc3[nH]2)CC1
inactive: [4] 102 % of control | [5] 103 % of control | [6] 107 % of control

C=C(C)C1CC2(C)C(C)CC(O)CC2C(OC(=O)/C=C(/C)CC)C1O (centres undefined)
inactive: dose: 12.5 mg/kg/injection, schedule: Q01DX009 (ip), vehicle: Klucel (hydroxypropylcellulose) (HPC) 97 % of control | dose: 25.0 mg/kg/injection, schedule: Q01DX009 (ip), vehicle: Klucel (hydroxypropylcellulose) (HPC) 98 % of control | [13] 97 % of control | [14] 97 % of control

O=c1c2ccccc2n(-c2ccccc2)c2cc(Cl)ccc12
inactive: [4] 100 % of control | [5] 102 % of control | [6] 100 % of control

O=NNc1cncc(Sc2ccccc2)n1
inactive: dose: 3.12 mg/kg/injection, schedule: Q01DX009 (ip), vehicle: water 97 % of control | dose: 6.25 mg/kg/injection, schedule: Q01DX009 (ip), vehicle: water 94 % of control | dose: 12.5 mg/kg/injection, schedule: Q01DX009 (ip), vehicle: water 101 % of control | dose: 25.0 mg/kg/injection, schedule: Q01DX008 (ip), vehicle: water 116 % of control | dose: 25.0 mg/kg/injection, schedule: Q01DX009 (ip), vehicle: water 107 % of control | dose: 50.0 mg/kg/injection, schedule: Q01DX008 (ip), vehicle: water 120 % of control | dose: 50.0 mg/kg/injection, schedule: Q01DX009 (ip), vehicle: water 92 % of control

O=C1CN(C2CCCCC2)CC(=O)N2CCCCN12
inactive: [7] 108 % of control | [8] 105 % of control | [9] 103 % of control

Ic1sc(I)c(I)c1I
inactive: dose: 6.25 mg/kg/injection, schedule: Q01DX001 (ip), vehicle: saline with Tween-80 100 % of control | dose: 12.5 mg/kg/injection, schedule: Q01DX001 (ip), vehicle: saline with Tween-80 100 % of control | dose: 25.0 mg/kg/injection, schedule: Q01DX001 (ip), vehicle: saline with Tween-80 105 % of control
